Data taken from the NIST ThermoML archive (doi:10.1021/je800334m).
± gives the expanded uncertainty stated by the source.

Key:
[1] = excess molar enthalpy (molar enthalpy of mixing); xn = mol fraction of the nth substance listed; conditions: Liquid, Flow calorimetry
[2] = Liquid

For CN(C)CCO [2-(N,N-dimethylamino)ethanol] + CCCO, the excess molar enthalpy ([1]; 298.2 K, 100 kPa, x1 = 0.2007) was -0.191 ± 0.0044 kJ/mol, the excess molar enthalpy ([1]; 298.2 K, 100 kPa, x1 = 0.2509) was -0.214 ± 0.0048 kJ/mol and the excess molar enthalpy ([1]; 298.2 K, 100 kPa, x1 = 0.3008) was -0.231 ± 0.0052 kJ/mol. The excess molar enthalpy ([1]; 298.2 K, 100 kPa, x1 = 0.3505) was -0.244 ± 0.0055 kJ/mol, the excess molar enthalpy ([1]; 298.2 K, 100 kPa, x1 = 0.3999) was -0.251 ± 0.0056 kJ/mol and the excess molar enthalpy ([1]; 298.2 K, 100 kPa, x1 = 0.4507) was -0.252 ± 0.0056 kJ/mol. For the same molecule, the excess molar enthalpy ([1]; 298.2 K, 100 kPa, x1 = 0.499) was -0.254 ± 0.0057 kJ/mol, the excess molar enthalpy ([1]; 298.2 K, 100 kPa, x1 = 0.5509) was -0.245 ± 0.0055 kJ/mol and the excess molar enthalpy ([1]; 298.2 K, 100 kPa, x1 = 0.6) was -0.234 ± 0.0053 kJ/mol. For the same molecule, the excess molar enthalpy ([1]; 298.2 K, 100 kPa, x1 = 0.6505) was -0.219 ± 0.0049 kJ/mol, the excess molar enthalpy ([1]; 298.2 K, 10000 kPa, x1 = 0.2001) was -0.191 ± 0.0044 kJ/mol and the excess molar enthalpy ([1]; 298.2 K, 10000 kPa, x1 = 0.2503) was -0.214 ± 0.0048 kJ/mol. For the same molecule, the excess molar enthalpy ([1]; 298.2 K, 10000 kPa, x1 = 0.3004) was -0.231 ± 0.0052 kJ/mol, the excess molar enthalpy ([1]; 298.2 K, 10000 kPa, x1 = 0.3502) was -0.243 ± 0.0055 kJ/mol and the excess molar enthalpy ([1]; 298.2 K, 10000 kPa, x1 = 0.3995) was -0.252 ± 0.0056 kJ/mol. For the same molecule, the excess molar enthalpy ([1]; 298.2 K, 10000 kPa, x1 = 0.4504) was -0.255 ± 0.0057 kJ/mol, the excess molar enthalpy ([1]; 298.2 K, 10000 kPa, x1 = 0.5007) was -0.253 ± 0.0057 kJ/mol and the excess molar enthalpy ([1]; 298.2 K, 10000 kPa, x1 = 0.5504) was -0.245 ± 0.0055 kJ/mol. For the same molecule, the excess molar enthalpy ([1]; 298.2 K, 10000 kPa, x1 = 0.5994) was -0.234 ± 0.0053 kJ/mol, the excess molar enthalpy ([1]; 298.2 K, 10000 kPa, x1 = 0.6497) was -0.221 ± 0.005 kJ/mol and the excess molar enthalpy ([1]; 313.2 K, 100 kPa, x1 = 0.2984) was -0.251 ± 0.0056 kJ/mol. The excess molar enthalpy ([1]; 313.2 K, 100 kPa, x1 = 0.3505) was -0.267 ± 0.006 kJ/mol, the excess molar enthalpy ([1]; 313.2 K, 100 kPa, x1 = 0.4012) was -0.276 ± 0.0062 kJ/mol and the excess molar enthalpy ([1]; 313.2 K, 100 kPa, x1 = 0.4501) was -0.279 ± 0.0062 kJ/mol. For the same molecule, the excess molar enthalpy ([1]; 313.2 K, 100 kPa, x1 = 0.5004) was -0.277 ± 0.0062 kJ/mol, the excess molar enthalpy ([1]; 313.2 K, 100 kPa, x1 = 0.5488) was -0.269 ± 0.006 kJ/mol and the excess molar enthalpy ([1]; 313.2 K, 100 kPa, x1 = 0.5985) was -0.257 ± 0.0057 kJ/mol. The excess molar enthalpy ([1]; 313.2 K, 100 kPa, x1 = 0.6497) was -0.239 ± 0.0054 kJ/mol, the excess molar enthalpy ([1]; 313.2 K, 100 kPa, x1 = 0.6986) was -0.217 ± 0.0049 kJ/mol and the excess molar enthalpy ([1]; 313.2 K, 100 kPa, x1 = 0.7488) was -0.19 ± 0.0044 kJ/mol. For the same molecule, the excess molar enthalpy ([1]; 313.2 K, 100 kPa, x1 = 0.8005) was -0.158 ± 0.0037 kJ/mol, the excess molar enthalpy ([1]; 313.2 K, 100 kPa, x1 = 0.8495) was -0.124 ± 0.003 kJ/mol and the excess molar enthalpy ([1]; 313.2 K, 10000 kPa, x1 = 0.2492) was -0.231 ± 0.0052 kJ/mol. For the same molecule, the excess molar enthalpy ([1]; 313.2 K, 10000 kPa, x1 = 0.2998) was -0.256 ± 0.0057 kJ/mol, the excess molar enthalpy ([1]; 313.2 K, 10000 kPa, x1 = 0.3489) was -0.27 ± 0.006 kJ/mol and the excess molar enthalpy ([1]; 313.2 K, 10000 kPa, x1 = 0.3995) was -0.279 ± 0.0062 kJ/mol. For the same molecule, the excess molar enthalpy ([1]; 313.2 K, 10000 kPa, x1 = 0.4484) was -0.282 ± 0.0063 kJ/mol, the excess molar enthalpy ([1]; 313.2 K, 10000 kPa, x1 = 0.4986) was -0.28 ± 0.0062 kJ/mol and the excess molar enthalpy ([1]; 313.2 K, 10000 kPa, x1 = 0.5504) was -0.272 ± 0.0061 kJ/mol. The excess molar enthalpy ([1]; 313.2 K, 10000 kPa, x1 = 0.6001) was -0.258 ± 0.0058 kJ/mol, the excess molar enthalpy ([1]; 313.2 K, 10000 kPa, x1 = 0.6512) was -0.24 ± 0.0054 kJ/mol and the excess molar enthalpy ([1]; 313.2 K, 10000 kPa, x1 = 0.7) was -0.217 ± 0.0049 kJ/mol. It also gave an excess molar enthalpy ([1]; 313.2 K, 10000 kPa, x1 = 0.7501) of -0.189 ± 0.0044 kJ/mol, an excess molar enthalpy ([1]; 313.2 K, 10000 kPa, x1 = 0.8015) of -0.157 ± 0.0037 kJ/mol and an excess molar enthalpy ([1]; 313.2 K, 10000 kPa, x1 = 0.8503) of -0.123 ± 0.0031 kJ/mol. For the same molecule, the excess molar enthalpy ([1]; 328.2 K, 100 kPa, x1 = 0.2007) was -0.264 ± 0.006 kJ/mol, the excess molar enthalpy ([1]; 328.2 K, 100 kPa, x1 = 0.2509) was -0.291 ± 0.0065 kJ/mol and the excess molar enthalpy ([1]; 328.2 K, 100 kPa, x1 = 0.3008) was -0.313 ± 0.007 kJ/mol. It also gave an excess molar enthalpy ([1]; 328.2 K, 100 kPa, x1 = 0.3505) of -0.327 ± 0.0072 kJ/mol, an excess molar enthalpy ([1]; 328.2 K, 100 kPa, x1 = 0.3999) of -0.333 ± 0.0074 kJ/mol and an excess molar enthalpy ([1]; 328.2 K, 100 kPa, x1 = 0.4507) of -0.333 ± 0.0074 kJ/mol. For the same molecule, the excess molar enthalpy ([1]; 328.2 K, 100 kPa, x1 = 0.499) was -0.327 ± 0.0072 kJ/mol, the excess molar enthalpy ([1]; 328.2 K, 100 kPa, x1 = 0.5509) was -0.313 ± 0.0069 kJ/mol and the excess molar enthalpy ([1]; 328.2 K, 100 kPa, x1 = 0.6) was -0.296 ± 0.0066 kJ/mol. It also gave an excess molar enthalpy ([1]; 328.2 K, 100 kPa, x1 = 0.6505) of -0.272 ± 0.0061 kJ/mol, an excess molar enthalpy ([1]; 328.2 K, 100 kPa, x1 = 0.7001) of -0.245 ± 0.0055 kJ/mol and an excess molar enthalpy ([1]; 328.2 K, 10000 kPa, x1 = 0.2001) of -0.264 ± 0.006 kJ/mol. It also gave an excess molar enthalpy ([1]; 328.2 K, 10000 kPa, x1 = 0.2503) of -0.293 ± 0.0066 kJ/mol, an excess molar enthalpy ([1]; 328.2 K, 10000 kPa, x1 = 0.3004) of -0.317 ± 0.007 kJ/mol and an excess molar enthalpy ([1]; 328.2 K, 10000 kPa, x1 = 0.3502) of -0.331 ± 0.0073 kJ/mol. For the same molecule, the excess molar enthalpy ([1]; 328.2 K, 10000 kPa, x1 = 0.3995) was -0.338 ± 0.0075 kJ/mol, the excess molar enthalpy ([1]; 328.2 K, 10000 kPa, x1 = 0.4504) was -0.339 ± 0.0075 kJ/mol and the excess molar enthalpy ([1]; 328.2 K, 10000 kPa, x1 = 0.5007) was -0.332 ± 0.0073 kJ/mol. The excess molar enthalpy ([1]; 328.2 K, 10000 kPa, x1 = 0.5504) was -0.32 ± 0.0071 kJ/mol, the excess molar enthalpy ([1]; 328.2 K, 10000 kPa, x1 = 0.5994) was -0.302 ± 0.0067 kJ/mol and the excess molar enthalpy ([1]; 328.2 K, 10000 kPa, x1 = 0.6497) was -0.279 ± 0.0062 kJ/mol.
For CCO [ethanol], the molar volume ([2]; 298.15 K, 100 kPa) was 5.867e-05 ± 4e-08 m3/mol, the molar volume ([2]; 298.15 K, 10000 kPa) was 5.803e-05 ± 7e-08 m3/mol and the molar volume ([2]; 313.15 K, 100 kPa) was 5.964e-05 ± 5e-08 m3/mol. It also gave a molar volume ([2]; 313.15 K, 10000 kPa) of 5.899e-05 ± 8e-08 m3/mol, a molar volume ([2]; 328.15 K, 100 kPa) of 6.067e-05 ± 5e-08 m3/mol and a molar volume ([2]; 328.15 K, 10000 kPa) of 6.001e-05 ± 9e-08 m3/mol.
CO [methanol] showed a molar volume ([2]; 298.15 K, 100 kPa) of 4.073e-05 ± 5e-08 m3/mol, a molar volume ([2]; 298.15 K, 10000 kPa) of 4.024e-05 ± 5e-08 m3/mol and a molar volume ([2]; 313.15 K, 100 kPa) of 4.146e-05 ± 6e-08 m3/mol. The molar volume ([2]; 313.15 K, 10000 kPa) was 4.096e-05 ± 6e-08 m3/mol, the molar volume ([2]; 328.15 K, 100 kPa) was 4.221e-05 ± 7e-08 m3/mol and the molar volume ([2]; 328.15 K, 10000 kPa) was 4.17e-05 ± 7e-08 m3/mol.
With CCCO [propan-1-ol] the molar volume ([2]; 298.15 K, 100 kPa) was 7.514e-05 ± 5e-08 m3/mol, the molar volume ([2]; 298.15 K, 10000 kPa) was 7.452e-05 ± 9e-08 m3/mol and the molar volume ([2]; 313.15 K, 100 kPa) was 7.632e-05 ± 6e-08 m3/mol. It also gave a molar volume ([2]; 313.15 K, 10000 kPa) of 7.569e-05 ± 9e-08 m3/mol, a molar volume ([2]; 328.15 K, 100 kPa) of 7.759e-05 ± 6e-08 m3/mol and a molar volume ([2]; 328.15 K, 10000 kPa) of 7.694e-05 ± 1e-07 m3/mol.
In the case of CC(C)O [propan-2-ol], the molar volume ([2]; 298.15 K, 100 kPa) is reported as 7.694e-05 ± 6e-08 m3/mol, the molar volume ([2]; 298.15 K, 10000 kPa) is reported as 7.594e-05 ± 1e-07 m3/mol and the molar volume ([2]; 313.15 K, 100 kPa) is reported as 7.822e-05 ± 6e-08 m3/mol. For the same molecule, the molar volume ([2]; 313.15 K, 10000 kPa) was 7.72e-05 ± 1e-07 m3/mol, the molar volume ([2]; 328.15 K, 100 kPa) was 7.962e-05 ± 7e-08 m3/mol and the molar volume ([2]; 328.15 K, 10000 kPa) was 7.857e-05 ± 1.1e-07 m3/mol.
